Ends that are not written are not given here.
Key:
LH surge = conditions: intracerebroventricular administration; cited from earlier work
Description: (§1) Our present study, together with the previous study on PACAP1-27, highlights the potential therapeutic use of PACAP in the form of eye drops to treat retinal diseases. The novelty of our present results is that PACAP1-38, the most commonly occurring form of the peptide, exerts a retinoprotective effect similarly to PACAP1-27. Although most actions of PACAP1-27 and PACAP1-38 are similar or the same, several differences are also known. In most studies, PACAP1-27 binds to the receptors with less affinity, leading to less well-pronounced effects at the same concentration as PACAP1-38 [6, 36]. T ...

dipeptidyl-peptidase = conditions: cited from earlier work
Description: as §1

retinoblastoma cells = conditions: high concentrations; cited from earlier work
Description: as §1

[1] = test system: monosodium glutamate-induced excitotoxic lesions of the retina; conditions: intravitreal injection; cited from earlier work
Description: (§2) VIP, the peptide with the closest structural similarity ...

[2] = test system: ocular barriers and retinal lesion; conditions: eye drops dissolved in benzalkonium-chloride; cited from earlier work
Description: The present results are in accordance with our recent observations with PACAP1-27 eye drops.

ischemic retinal lesion = conditions: cited from earlier work
Description: as §2

[3] = test system: retinal layers in BCCAO-induced retinal hypoperfusion; assay: Retina morphology and morphometry after permanent bilateral common carotid artery occlusion (BCCAO); assay type: in vivo, Wistar rats
Experimental: (§3) Wistar rats (n = 20:n = 12 for histological analysis, n = 8 for immunohistochemical analysis) weighing 250–300 g were subjected to permanent ligation of both common carotid arteries. The animals were bred and kept in the Animal Facility of the University of Pecs, Medical School. They were fed and watered ad libitum, under light/dark cycles of 12/12 h. All procedures were in accordance with institutional guidelines (ethical permission No: BA02/2000-31/2011, University of Pecs). Under isoflurane anesthesia, both common carotid arteries were exposed through a midline cervical incision and ligated with a 3-0 filament. Directly after the operation within 1 min, the right eye was treated with PACAP1-38 eye drops (1 µg/drop) (PACAP was synthesized at the Department of Medical Chemistry, University of Szeged, Szeged, Hungary). […] The left eye served as a control, treated only with the vehicle. A group of animals served as the sham-operated group that underwent anesthesia and all steps of the surgical procedure except ligation of the carotid arteries. Rats were treated twice a day with one drop, for 5 consecutive days.
Rats (n = 3 sham, n = 3 sham + PACAP1-38, n = 9 BCCAO, n = 9 BCCAO + PACAP1-38 retinas) were sacrificed with an overdose of anesthetic 2 weeks after BCCAO and eyes were processed for histological analysis. Histological analysis was performed as described previously. Briefly, removed retinas were dissected in phosphate buffered saline (PBS), fixed in 4% paraformaldehyde dissolved in 0.1 M phosphate buffer (PB), embedded in Durcupan ACM resin, and two-µm-thick sections were stained with toluidine blue (Sigma, Budapest, Hungary). Four tissue blocks obtained from at least three rats were prepared and central retinal areas within 1 mm from the optic nerve were used (n = 5 measurements from one tissue block). The following parameters were measured on digital photographs taken with a Nikon Eclipse camera using the Spot program: cross-section from the outer limiting membrane (OLM) to the inner limiting membrane (ILM), and width of all retinal layers (outer nuclear layer-ONL, outer plexiform layer-OPL, inner nuclear layer-INL, inner plexiform layer-IPL). We also counted the number of cells in the ganglion cell layer (GCL). Results are presented as mean ± SEM. Statistical comparisons were made using the two-way ANOVA followed by Fischer’s post hoc analysis.

[4] = test system: Müller glial cells (GFAP); assay: GFAP immunohistochemistry of Müller glial cell activation after BCCAO; assay type: in vivo, Wistar rats; conditions: BCCAO rats, eye drops 1 µg/drop twice a day for 5 days, 2 weeks after ischemia, n = 4; p < 0.05
Experimental: as §3, with “Rats were treated twice a day with one drop, for 5 consecutive days.” left out
For immunohistochemical analysis, 2 weeks after the induction of ischemia, animals (n = 4 sham, n = 4 sham + PACAP1-38 and n = 4 BCCAO; n = 4 BCCAO + PACAP1-38 retinas) were sacrificed with 120 mg/kg pentobarbital (Nembutal, Sanofi-Phylaxia, Budapest, Hungary). […] Digital photographs were taken with a Nikon Eclipse Ci fluorescence microscope. […]

[5] = design: species or system mice; conditions: mouse, in vivo
Experimental: Mice were anesthetized with urethane and administered PACAP1-38 as an eye drop (1 × 10^6 cpm/eye in benzalkonium-chloride). Serum, whole brain, and eyes were collected 10 or 60 min after the eye drops were administered. The whole brain and eyes were washed in ice-cold PBS. Blood was allowed to clot, centrifuged at 5400× g for 10 min, and 50 μL of the serum obtained was added to 200 μL of 1% BSA in Lactated Ringers' (LR) solution. This mixture was added to 250 μL of 30% trichloroacetic acid, vortexed, and centrifuged for 10 min at 5400× g. Brains and eyes were homogenized separately in 0.5 mL of 1% BSA-LR with a bead beater for 30 s at 4800 rpm × 2 on ice. Samples were transferred to a microfuge tube and centrifuged at 10,000× g for 20 min and a portion of the resulting supernatant added to an equal volume of 30% trichloroacetic acid, vortexed, and centrifuged at 5400× g for 10 min. Resulting supernatant (S) and precipitate (P) from the serum, whole brain, and eyes were counted separately and the percent of radioactivity which could be precipitated with acid (% […]) was calculated using: % […] = 100(P)/(S + P). To correct for any degradation that might have occurred during the processing for acid precipitation, we added 125I-PACAP1-38 to non-radioactive arterial whole blood, whole brain, and eyes, and processed as above. Biological samples were corrected for degradation during processing by dividing their values by the processing control values.

[6] = mouse, in vivo

PACAP1-27: the shorter biologically active form of PACAP [reference compound]
effect on LH surge (LH surge): opposite reaction | metabolic stability in the serum against dipeptidyl-peptidase (dipeptidyl-peptidase): more stable due to the resistance against dipeptidyl-peptidase reaction | viability of retinoblastoma cells (retinoblastoma cells): negligible effects | retinoprotection in monosodium glutamate-induced excitotoxic lesions [1]: same degree of retinoprotection | passage through ocular barriers and effect on retinal lesion [2]: passes through the mouse ocular barriers from the corneal surface to the retina, and ameliorates the retinal lesion

secretin
protective effects in ischemic retinal lesion (ischemic retinal lesion): do not exert protective effects

pituitary adenylate cyclase activating polypeptide [PACAP1-38]
OLM–ILM (outer limiting membrane–inner limiting membrane) distance, reduction compared to sham controls ([3]; BCCAO rats, eye drops 1 µg/drop in 0.005% benzalkonium-chloride, twice a day for 5 days, 2 weeks after ligation, BCCAO vehicle eye 49.7%, p < 0.001, n = 9 retinas): 40.6% | outer nuclear layer (ONL) thickness, reduction ([3]; as E1, BCCAO vehicle eye 36.5%, no statistically significant attenuation): 37.7% | inner nuclear layer (INL) thickness, reduction ([3]; as E1, BCCAO vehicle eye 38.5%, p < 0.001): 30.5% | number of cells in the ganglion cell layer (GCL), decrease ([3]; as E1, BCCAO vehicle eye 52.4%, p < 0.05): 25.9% | outer plexiform layer (OPL) thickness, reduction ([3]; as E1, BCCAO vehicle eye 53.0%, no statistically significant attenuation): 48.2% | inner plexiform layer (IPL) thickness, reduction ([3]; as E1, BCCAO vehicle eye 64.8%, p < 0.05): 38.2% | effect on retinal layers in sham animals ([3]; sham-operated rats, eye drops 1 µg/drop in benzalkonium, n = 3): did not result in changes in any of the retinal layers | GFAP upregulation in Müller glial cells [4]: attenuated the GFAP upregulation | Percentage of acid precipitation, Whole Brain, 10 min [5]: 104.71 ± 17.72% | Percentage of acid precipitation, Whole Brain, 60 min [5]: 75.09 ± 41.13% | intact peptide in the eye [5]: about 50% | clearance into the blood stream (serum) [6]: increased clearance into the blood stream after 120 min | detection of radioactivity after ocular application [6]: present in the eye, the brain, and the serum five minutes after application | level in the whole brain, time course [6]: detected after 5 min in the whole brain (Figure 4D) and levels remained stable throughout the observation time | transport across the cornea, time course [6]: increasing transport across the cornea over the time course of the study | uptake in the retina, time course [6]: increased to 30 min and plateaued | effect on LH surge (LH surge): inhibition of the LH surge | metabolic stability in the serum against dipeptidyl-peptidase (dipeptidyl-peptidase): rapidly degraded in the serum by dipeptidyl-peptidase | viability of retinoblastoma cells (retinoblastoma cells): reduced viability | retinoprotection in monosodium glutamate-induced excitotoxic lesions [1]: same degree of retinoprotection

PACAP6-38: PACAP receptor antagonist (FTDSYSRYRKQMAVKKYLAAVLGKRYKQRVKNK; ends and bridges not checked; UniProt P18509 137-169, looked up, fragment)
retinoprotection in monosodium glutamate-induced excitotoxic lesions [1]: further increased the excitotoxic damage

VIP: the peptide with the closest structural similarity to PACAP
concentration needed for the same degree of protection as PACAP in ischemic retinopathy (ischemic retinal lesion): ten times higher

PACAP6-27: PACAP receptor antagonist (FTDSYSRYRKQMAVKKYLAAVL; ends and bridges not checked; UniProt P18509 137-158, looked up, fragment)
retinoprotection in monosodium glutamate-induced excitotoxic lesions [1]: further increased the excitotoxic damage

pituitary adenylate cyclase activating polypeptide [PACAP]
serum and brain levels in comparison to ocular levels [6]: negligible in comparison to ocular levels

125I-PACAP1-38: PACAP1-38 labeled with 125I using the lactoperoxidase method
Percentage of acid precipitation, Eye, 10 min [5]: 52.73 ± 2.35% | Percentage of acid precipitation, Eye, 60 min [5]: 48.24 ± 3.39% | Percentage of acid precipitation, Serum, 10 min [5]: 25.57 ± 25.57% | Percentage of acid precipitation, Serum, 60 min [5]: 0 ± 0% | Percentage of acid precipitation, Whole Brain, 10 min [5]: 104.71 ± 17.72% | Percentage of acid precipitation, Whole Brain, 60 min [5]: 75.09 ± 41.13% | degradation in the serum after ocular administration [5]: almost completely degraded by 5 min

glucagon
protective effects in ischemic retinal lesion (ischemic retinal lesion): do not exert protective effects
